Assays:
Assay type in all cases: in vivo
Zea mays (ZEAMX) [1] = test: Pre-emergence Test (glasshouse, percentage damage to the plant); conditions: 1000 g/ha unless otherwise stated, Zea mays
[2] = test system: Echinochloa crus-galli (ECHCG); test: Post-emergence Test (glasshouse, percentage damage to the plant); conditions: post-emergence; 1000 g/ha unless otherwise stated; evaluated after 13 days
Procedure, shortened: (§1)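 Seeds are sown in standard soil under controlled glasshouse conditions. The pots are then sprayed at 1000 g/ha, unless otherwise stated, with compound in acetone/water (50:50) containing 0.5% Tween 20. After 13 days further growth, percentage plant damage is scored from 1 (0-20%) to 5 (81-100%).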

Zea mays (ZEAMX) [3] = test: as above; conditions: post-emergence; 1000 g/ha unless otherwise stated; evaluated after 13 days
Procedure, shortened: (§2)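 After sowing in standard soil, pots were kept at 24/16 °C (day/night), 14 h light and 65% humidity. They were sprayed at 1000 g/ha unless otherwise stated, watered twice daily, and assessed for percentage damage at 13 days on a 1–5 scale.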

[4] = test system: Amaranthus retoflexus (AMARE); test: as above; conditions: post-emergence; 1000 g/ha unless otherwise stated; evaluated after 13 days
Procedure, shortened: as §1

Setaria faberi (SETFA) [5] = test: as above; conditions: post-emergence; 1000 g/ha unless otherwise stated; evaluated after 13 days
Procedure, shortened: as §2

[6] = test system: Ipomoea hederacea (IPOHE); test: as above; conditions: post-emergence; 1000 g/ha unless otherwise stated; evaluated after 13 days
Procedure, shortened: as §2

[7] = test system: Amaranthus palmeri (AMAPA); test: as above; conditions: post-emergence; 1000 g/ha unless otherwise stated; evaluated after 13 days
Procedure, shortened: as §1

[8] = test system: Ipomoea hederacea (IPOHE); test: Pre-emergence Test (glasshouse, percentage damage to the plant); conditions: 1000 g/ha unless otherwise stated, Ipomoea hederacea
[9] = test system: Amaranthus retoflexus (AMARE); test: as above; conditions: 1000 g/ha unless otherwise stated, Amaranthus retoflexus
[10] = test system: Amaranthus palmeri (AMAPA); test: as above; conditions: 1000 g/ha unless otherwise stated, Amaranthus palmeri
Setaria faberi (SETFA) [11] = test: as above; conditions: 1000 g/ha unless otherwise stated, Setaria faberi
[12] = test system: Echinochloa crus-galli (ECHCG); test: as above; conditions: 1000 g/ha unless otherwise stated, Echinochloa crus-galli

Structure (SMILES)	percentage damage to the plant, ZEAMX (five-point scale) (Zea mays (ZEAMX) [1])	ECHCG, percentage damage caused to the plant (five-point scale) [2]	ZEAMX, percentage damage caused to the plant (five-point scale) (Zea mays (ZEAMX) [3])	AMARE, percentage damage caused to the plant (five-point scale) [4]	SETFA, percentage damage caused to the plant (five-point scale) (Setaria faberi (SETFA) [5])	IPOHE, percentage damage caused to the plant (five-point scale) [6]	AMAPA, percentage damage caused to the plant (five-point scale) [7]	percentage damage to the plant, IPOHE (five-point scale) [8]	percentage damage to the plant, AMARE (five-point scale) [9]	percentage damage to the plant, AMAPA (five-point scale) [10]	percentage damage to the plant, SETFA (five-point scale) (Setaria faberi (SETFA) [11])	percentage damage to the plant, ECHCG (five-point scale) [12]
CCn1c(C)c(-c2ccc(F)cc2)c(=O)c(C(=O)OC)c1-c1cnc(Cl)c(Cl)c1 [Compound 212, methyl 2-(5,6-dichloro-3-pyridyl)-1-ethyl-5-(4-fluorophenyl)-6-methyl-4-oxo-pyridine-3-carboxylate]	0	0	0	1 (1=0-20%)	0	0	1 (1=0-20%)	0	0	1 (1=0-20%)	3 (3=41-60%)	2 (2=21-40%)
CCn1c(C)c(-c2ccc(Cl)cc2Cl)c(=O)c(C(=O)OC)c1-c1cnc(Cl)c(Cl)c1 [Compound 214, methyl 5-(2,4-dichlorophenyl)-2-(5,6-dichloro-3-pyridyl)-1-ethyl-6-methyl-4-oxo-pyridine-3-carboxylate]	0	0	1 (1=0-20%)	2 (2=21-40%)	1 (1=0-20%)	0	2 (2=21-40%)	0	0	0	0	0
CCn1c(C)c(-c2ccc(Cl)cc2)c(=O)c(C(=O)OC)c1-c1cnc(Cl)c(Cl)c1 [Compound 215, methyl 5-(4-chlorophenyl)-2-(5,6-dichloro-3-pyridyl)-1-ethyl-6-methyl-4-oxo-pyridine-3-carboxylate]	0	3 (3=41-60%)	3 (3=41-60%)	4 (4=61-80%)	3 (3=41-60%)	1 (1=0-20%)	4 (4=61-80%)	1 (1=0-20%)	4 (4=61-80%)	3 (3=41-60%)	4 (4=61-80%)	2 (2=21-40%)
CCn1c(CBr)c(-c2ccc(Cl)cc2)c(=O)c(C(=O)OC)c1-c1ccc(Cl)c(Cl)c1 [Compound 218, methyl 6-(bromomethyl)-5-(4-chlorophenyl)-2-(3,4-dichlorophenyl)-1-ethyl-4-oxo-pyridine-3-carboxylate]	0	1 (1=0-20%)	1 (1=0-20%)	3 (3=41-60%)	2 (2=21-40%)	0	3 (3=41-60%)	0	0	0	0	0
CCn1c(C)c(-c2ccc3ccccc3n2)c(=O)c(C(=O)O)c1-c1ccc(Cl)c(Cl)c1 [Compound 219, 2-(3,4-dichlorophenyl)-1-ethyl-6-methyl-4-oxo-5-(2-quinolyl)pyridine-3-carboxylic acid]	0	1 (1=0-20%)	0	3 (3=41-60%)	1 (1=0-20%)	3 (3=41-60%)	3 (3=41-60%)	0	0	1 (1=0-20%)	1 (1=0-20%)	0
CCn1c(C)c(-c2ccc(Cl)cc2F)c(=O)c(C(=O)O)c1-c1cnc(Cl)c(Cl)c1 [Compound 242, 5-(4-chloro-2-fluoro-phenyl)-2-(5,6-dichloro-3-pyridyl)-1-ethyl-6-methyl-4-oxo-pyridine-3-carboxylic acid]	2 (2=21-40%)	5 (5=81-100%)	4 (4=61-80%)	5 (5=81-100%)	5 (5=81-100%)	4 (4=61-80%)	5 (5=81-100%)	4 (4=61-80%)	4 (4=61-80%)	5 (5=81-100%)	5 (5=81-100%)	5 (5=81-100%)
CCn1c(C)c(-c2cc(OCCOC)c(Cl)cc2F)c(=O)c(C(=O)O)c1-c1ccc(Cl)c(Cl)c1 [Compound 244, 5-[4-chloro-2-fluoro-5-(2-methoxyethoxy)phenyl]-2-(3,4-dichlorophenyl)-1-ethyl-6-methyl-4-oxo-pyridine-3-carboxylic acid]	0	5 (5=81-100%)	5 (5=81-100%)	5 (5=81-100%)	5 (5=81-100%)	3 (3=41-60%)	5 (5=81-100%)	3 (3=41-60%)	5 (5=81-100%)	5 (5=81-100%)	5 (5=81-100%)	5 (5=81-100%)
CCn1c(C)c(-c2cc(OC(C)C)c(Cl)cc2F)c(=O)c(C(=O)O)c1-c1ccc(Cl)c(Cl)c1 [Compound 245, 5-(4-chloro-2-fluoro-5-isopropoxy-phenyl)-2-(3,4-dichlorophenyl)-1-ethyl-6-methyl-4-oxo-pyridine-3-carboxylic acid]	0	5 (5=81-100%)	3 (3=41-60%)	5 (5=81-100%)	5 (5=81-100%)	4 (4=61-80%)	5 (5=81-100%)	2 (2=21-40%)	5 (5=81-100%)	5 (5=81-100%)	5 (5=81-100%)	5 (5=81-100%)

— patent publication US12660819B2, “Herbicidal derivatives” (SYNGENTA CROP PROTECTION AG, priority 2020, dated 2026)
